Data reported in US5840843A, “Synthetic polypeptides as inhibitors of HIV-1” (priority 1995, dated 1998).
Bridge positions count the residues as written; N and C are the ends. Ends that are not written are not given here. I, II: the chains in the order shown.

What was measured:
[1] = tested on: AZT-resistant mutant of HIV-1; experiment: Inhibition of infection by AZT-resistant HIV-1 mutant; type: cell-based; details: FIG. 6
Method: (§1) For virus inhibition assays, H9, MT-2 and U937 cells were used as target cells. Five HIV-1 isolates (IIIB, MN, RF, SF2, and an AZT-resistant mutant) were cultivated in MT-2 cells, collected, and aliquoted.
(§2) HIV-1 infectivity was determined by two distinct methods; an ELISA measuring HIV-1 core protein p24 production and a colorimetric assay for HIV-mediated cytopathogenesis. Briefly, 1×10^4 MT-2 cells in 96 well plates were infected with dilutions of HIV-1IIIB in 200 μl RPMI 1640 medium with 10% FBS. After 24 hrs., half of the culture medium was changed. On the fourth day after incubation at 37° C., 100 μl of culture supernatant was collected from each well and an equal volume of fresh medium was added to the wells. The collected supernatants were mixed with equal volumes of 5% Triton X-100 and assayed for p24 using a kit from Coulter Immunology (Hialeah, FL). On the sixth day post infection, an indicator XTT tetrazolium dye (1 mg/ml; 50μl/well; PolySciences, Inc., Warrington, Pa.) was added to the cells. After a 4 hr. period, intracellular formazan was determined calorimetrically at 450 nm. The percentage of cytopathogenesis was calculated using the following formula: [(OD450 in negative control-OD450 in experiment)/(OD450 in negative control-OD450 in positive control)] ×100.

[2] = tested on: HIV-1; details: FIG. 7
Method: Rabbit antiserum directed against this peptide was prepared. […] The mixture was tested for antiviral activity.

[3] = tested on: MT-2 cells; experiment: Cytotoxicity of peptides for MT-2 cells; details: for cytotoxicity: MT-2 cells
Method: Subsequently, cytotoxicity studies were performed using MT-2 cells at a final concentration of 12.5 μg/ml.

[4] = tested on: HIV-1IIIB; experiment: Inhibition of HIV-1IIIB-mediated cytopathogenesis in MT-2 cells (XTT colorimetric assay); type: cell-based
Method: as §1, §2
Additionally, studies were performed to determine whether or not any of the peptides could inhibit the cytopathogenesis mediated by HIV-1.

[5] = tested on: HIV-1IIIB; experiment: Inhibition of HIV-1IIIB replication in U937 cells (p24 production); type: cell-based; details: monocytic cell line U937, FIG. 4
Method: as §1, §2

[6] = tested on: HIV-1 isolate RF; experiment: Inhibition of infection by HIV-1 isolate RF; type: cell-based; details: FIG. 6
Method: as §1, §2

[7] = tested on: HIV-1 isolate SF2; experiment: Inhibition of infection by HIV-1 isolate SF2; type: cell-based; details: FIG. 6
Method: as §1, §2

[8] = tested on: HIV-1IIIB infected H9 cells; experiment: Inhibition of fusion of HIV-1IIIB infected H9 cells with uninfected H9 cells (syncytium count); type: cell-based
Method: The inhibitory effect of the peptide of the present invention on the fusion of HIV-1 infected cells with uninfected cells was also determined. In brief, 1.25×10^4 HIV-1IIIB infected H9 cells were mixed with the peptide and an equal number of uninfected H9 cells.

[9] = tested on: HIV-1 isolate MN; experiment: Inhibition of infection by HIV-1 isolate MN; type: cell-based; details: FIG. 6
Method: as §1, §2

[10] = tested on: HIV-1IIIB; experiment: Inhibition of HIV-1IIIB replication in MT-2 cells (p24 ELISA); type: cell-based
Method: as §1, §2
Twenty-nine peptides from HIV-1IIIB gp160 (gp120/gp41) and 21 peptides from V3 hypervariable loops of distinct HIV-1 isolates were screened for their inhibitory activity on HIV-1 replication and HIV-1-mediated cytopathogenesis in MT-2 cells.

Molecule	inhibition of infection (replication and cytopathogenesis) [1]	inhibitory activity on p24 production after incubation with antiserum ([2]; peptide 1 μg/ml incubated with rabbit anti-(637-666) antiserum, 37° C., 30 minutes)	inhibition of p24 production ([2]; peptide 1 μg/ml, in the absence of antiserum)	cytotoxicity ([3]; concentration increased to 11.145 μM)	cytotoxicity ([3]; final concentration 12.5 μg/ml, FIG. 3)	50% cytotoxic dose (CD50) ([3]; colorimetric assay)	ED50 for inhibition of cytopathogenesis mediated by HIV-1IIIB ([4]; MT-2 cells, FIG. 5) [nM]	inhibition of cytopathogenesis mediated by HIV-1 ([4]; MT-2 cells, HIV-1IIIB, FIG. 2)	inhibition of HIV-1-mediated cytopathogenesis, dimer compared with monomer ([4]; comparative assay, FIG. 8)	inhibition of p24 production [5]	inhibition of infection (replication and cytopathogenesis) [6]	inhibition of infection (replication and cytopathogenesis) [7]	ED50 for inhibition of cell fusion ([8]; HIV-1IIIB infected H9 cells, FIG. 5) [nM]	inhibition of cell fusion, dimer compared with monomer ([8]; comparative assay, FIG. 8)	inhibition of infection (replication and cytopathogenesis) [9]	inhibition of infection (replication and cytopathogenesis) ([10]; HIV-1 isolate IIIB, FIG. 6)	ED50 for inhibition of HIV-1IIIB replication (decrease of gag protein p24 production) ([10]; MT-2 cells, FIG. 5) [nM]	inhibition of HIV-1 replication, dimer compared with monomer ([10]; comparative assay, FIG. 8)	inhibition of HIV-1 replication (decrease of gag protein p24 synthesis) ([10]; final concentration 12.5 μg/ml, MT-2 cells, HIV-1IIIB, FIG. 1)
Cc1cn([C@H]2C[C@H](N=[N+]=[N-])[C@@H](CO)O2)c(=O)[nH]c1=O [AZT, 3'azido-3'deoxythymidine, reference compound]	could not be effectively neutralized	–	–	–	–	–	–	–	–	–	–	–	–	–	–	–	–	–	–
I: EWDREINNYTSLIHSLIEESQNQQEKNEQEGGC / II: EWDREINNYTSLIHSLIEESQNQQEKNEQEGGC (disulfide I:33-II:33) [peptide (637-666)]	effectively inhibited infections	significantly blocked	significantly inhibited p24 production	significant cytotoxicity remained undetectable	did not exhibit any cytotoxicity	> 11,145 nM	142.0	markedly inhibited cytopathogenesis	much more effective	significantly inhibited p24 production	effectively inhibited infections	effectively inhibited infections	160.0	much more effective	effectively inhibited infections	effectively inhibited infections	101.0	much more effective	significantly inhibited HIV-1 replication
